IC50 data for two molecules are collected here from patent publication US9670213B2, “Pteridine ketone derivative and applications thereof as EGFR, BLK, and FLT3 inhibitor” (EAST CHINA UNIVERSITY OF SCIENCE AND TECHNOLOGY, priority 2012, dated 2017).

For the assay, the system named is HCC827 (non-small cell lung cancer cells, EGFR del E746-A750). Description: Cell proliferation and growth inhibition analysis. In kind it is cell-based. Conditions: Homo sapiens, 72 hours, read-out: Inhibitory activity on cell proliferation (IC50, μM) HCC827.

Take `C=CC(=O)Nc1cccc(-n2c(=O)cnc3cnc(Nc4ccc(N5CCN(C)CC5)cc4)nc32)c1` [Compound 020, N-(3-(2-(4-(4-methyl-1-piperazinyl)-phenylamino)-7-oxo-8(7H)-pteridin-yl)phenyl) acrylamide]: the IC50 is 0.002 µM.
As for `C=CC(=O)Nc1cccc(-n2c(=O)cnc3cnc(Nc4ccc(N5CCN(C)CC5)cc4OC)nc32)c1` [Compound 032, N-(3-(2-(2-methoxy-4-(4-methyl-1-piperazinyl)-phenylamino)-7-oxo-8(7H)-pteridin-yl)phenyl)acrylamide], the figure is 0.004 µM.
